Reference: patent publication US8895592B2, “Compounds as cannabinoid receptor ligands” (priority 2008, dated 2014)

Tests used:
human CB2 receptors = human CB2 receptors (Homo sapiens (Human), UniProt P34972); test: human CB2 radioligand binding assay ([3H]CP 55,940 competition); conditions: HEK293 membranes, 0.5 nM [3H]CP 55,940
Experimental: HEK293 cells stably expressing human CB2 receptors were grown until a confluent monolayer was formed. Briefly, the cells were harvested and homogenized in TE buffer (50 mM Tris-HCl, 1 mM MgCl2, and 1 mM EDTA) using a polytron for 2×10 second bursts in the presence of protease inhibitors, followed by centrifugation at 45,000×g for 20 minutes. The final membrane pellet was re-homogenized in storage buffer (50 mM Tris-HCl, 1 mM MgCl2, and 1 mM EDTA and 10% sucrose) and frozen at −78° C. until used. Saturation binding reactions were initiated by the addition of membrane preparation (protein concentration of 5 μg/well for human CB2) into wells of a deep well plate containing [^3H]CP 55,940 (120 Ci/mmol, a nonselective CB agonist commercially available from Tocris) in assay buffer (50 mM Tris, 2.5 mM EDTA, 5 mM MgCl2, and 0.5 mg/mL fatty acid free BSA, pH 7.4). After 90 min incubation at 30° C., binding reaction was terminated by the addition of 300 μL/well of cold assay buffer followed by rapid vacuum filtration through a UniFilter-96 GF/C filter plates (pre-soaked in 1 mg/mL BSA for 2 hours). The bound activity was counted in a TopCount using Microscint-20. Saturation experiments were conducted with twelve concentrations of [^3H]CP 55,940 ranging from 0.01 to 8 nM. Competition experiments were conducted with 0.5 nM [^3H]CP 55,940 and five concentrations (0.01 nM to 10 μM) of displacing ligands. The addition of 10 μM unlabeled CP 55,940 (Tocris, Ellisville, Mo.) was used to assess nonspecific binding.

rat CB2 receptors = rat CB2 receptors (Rattus norvegicus (Rat), UniProt Q9QZN9); test: rat CB2 radioligand binding assay ([3H]CP 55,940 competition); conditions: HEK293 membranes, 0.5 nM [3H]CP 55,940
Chain of rat CB2 receptors (Q9QZN9 whole entry): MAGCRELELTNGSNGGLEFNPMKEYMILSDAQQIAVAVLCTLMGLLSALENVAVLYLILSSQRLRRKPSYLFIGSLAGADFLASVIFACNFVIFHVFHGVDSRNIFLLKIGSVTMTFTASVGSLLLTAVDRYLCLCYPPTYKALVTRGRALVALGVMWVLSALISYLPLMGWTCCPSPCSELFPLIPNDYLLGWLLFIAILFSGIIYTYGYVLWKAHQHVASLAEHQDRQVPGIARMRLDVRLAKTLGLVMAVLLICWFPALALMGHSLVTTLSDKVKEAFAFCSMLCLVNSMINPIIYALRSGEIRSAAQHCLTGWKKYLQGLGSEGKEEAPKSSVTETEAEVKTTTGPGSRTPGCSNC
Experimental: HEK293 cells stably expressing rat CB2 receptors were grown until a confluent monolayer was formed. Briefly, the cells were harvested and homogenized in TE buffer (50 mM Tris-HCl, 1 mM MgCl2, and 1 mM EDTA) using a polytron for 2×10 second bursts in the presence of protease inhibitors, followed by centrifugation at 45,000×g for 20 minutes. The final membrane pellet was re-homogenized in storage buffer (50 mM Tris-HCl, 1 mM MgCl2, and 1 mM EDTA and 10% sucrose) and frozen at −78° C. until used. Saturation binding reactions were initiated by the addition of membrane preparation (protein concentration of 20 μg/well for rat CB2) into wells of a deep well plate containing [^3H]CP 55,940 (120 Ci/mmol, a nonselective CB agonist commercially available from Tocris) in assay buffer (50 mM Tris, 2.5 mM EDTA, 5 mM MgCl2, and 0.5 mg/mL fatty acid free BSA, pH 7.4). After 45 min incubation at 30° C., binding reaction was terminated by the addition of 300 μl/well of cold assay buffer followed by rapid vacuum filtration through a UniFilter-96 GF/C filter plates (pre-soaked in 1 mg/mL BSA for 2 hours). The bound activity was counted in a TopCount using Microscint-20. Saturation experiments were conducted with twelve concentrations of [^3H]CP 55,940 ranging from 0.01 to 8 nM. Competition experiments were conducted with 0.5 nM [^3H]CP 55,940 and five concentrations of displacing ligands selected from the range of 0.01 nM to 10 μM. The addition of 10 μM unlabeled CP 55,940 (Tocris, Ellisville, Mo.) was used to assess nonspecific binding.

Chain of human CB2 receptors (P34972 whole entry): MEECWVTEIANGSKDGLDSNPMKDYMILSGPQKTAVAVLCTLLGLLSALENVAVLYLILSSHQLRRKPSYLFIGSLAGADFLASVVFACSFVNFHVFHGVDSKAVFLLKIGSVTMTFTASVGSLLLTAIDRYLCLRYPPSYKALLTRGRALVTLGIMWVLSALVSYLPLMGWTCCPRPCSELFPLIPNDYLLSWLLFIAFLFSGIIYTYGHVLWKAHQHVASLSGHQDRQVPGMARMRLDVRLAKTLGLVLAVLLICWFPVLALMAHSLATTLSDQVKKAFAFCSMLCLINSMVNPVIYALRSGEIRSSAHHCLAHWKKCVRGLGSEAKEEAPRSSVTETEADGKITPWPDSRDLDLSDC

CC(C)Cn1cc(C(C)(C)C)s/c1=N\C(=O)c1cc(C(F)(F)F)ccc1OCCn1ccnc1 [Example 6, N-[(2Z)-5-tert-butyl-3-isobutyl-1,3-thiazol-2(3H)-ylidene]-2-[2-(1H-imidazol-1-yl)ethoxy]-5-(trifluoromethyl)benzamide]
Ki (human CB2 receptors): 96 nM
Ki (rat CB2 receptors): 39 nM

CC(C)Cn1cc(C(C)(C)C)s/c1=N\C(=O)c1ccccc1OC[C@@H]1CCCN1C [Example 10, N-[(2Z)-5-tert-butyl-3-isobutyl-1,3-thiazol-2(3H)-ylidene]-2-{[(2S)-1-methylpyrrolidin-2-yl]methoxy}benzamide]
Ki (human CB2 receptors): 296 nM
Ki (rat CB2 receptors): 243 nM

CC(C)Cn1cc(C(C)(C)C)s/c1=N\C(=O)c1cc(C(F)(F)F)ccc1O[C@H]1CCN(C)C1 [Example 13, N-[(2Z)-5-tert-butyl-3-isobutyl-1,3-thiazol-2(3H)-ylidene]-2-{[(3S)-1-methylpyrrolidin-3-yl]oxy}-5-(trifluoromethyl)benzamide]
Ki (human CB2 receptors): 111 nM
Ki (rat CB2 receptors): 81 nM

CC(C)Cn1cc(C(C)(C)C)s/c1=N\C(=O)c1cc(Cl)ccc1OC1CC1 [Example 15, N-[(2Z)-5-tert-butyl-3-isobutyl-1,3-thiazol-2(3H)-ylidene]-5-chloro-2-(cyclopropyloxy)benzamide]
Ki (human CB2 receptors): 9.9 nM
Ki (rat CB2 receptors): 1.1 nM

CC(C)Cn1cc(C(C)(C)C)s/c1=N\C(=O)c1cc(C#N)ccc1OC1CCC1 [Example 16, N-[(2Z)-5-tert-butyl-3-isobutyl-1,3-thiazol-2(3H)-ylidene]-5-cyano-2-(cyclobutyloxy)benzamide]
Ki (human CB2 receptors): 96 nM
Ki (rat CB2 receptors): 5.2 nM

CC(C)(C)c1cn(CCC(F)(F)F)/c(=N/C(=O)c2cc(C#N)ccc2OC2CCC2)s1 [Example 17, N-[(2Z)-5-tert-butyl-3-(3,3,3-trifluoropropyl)-1,3-thiazol-2(3H)-ylidene]-5-cyano-2-(cyclobutyloxy)benzamide]
Ki (human CB2 receptors): 53 nM
Ki (rat CB2 receptors): 1.1 nM

CCCCn1/c(=N/C(=O)c2cc(C(F)(F)F)ccc2OCCC(C)(C)O)sc2ccncc21 [Example 20, N-[(2Z)-3-butyl[1,3]thiazolo[4,5-c]pyridin-2(3H)-ylidene]-2-(3-hydroxy-3-methylbutoxy)-5-(trifluoromethyl)benzamide]
Ki (human CB2 receptors): 35 nM
Ki (rat CB2 receptors): 48 nM

CCCCn1/c(=N/C(=O)c2cc(C(F)(F)F)ccc2ONC(C)(C)C)sc2ccncc21 [Example 22, 2-[(tert-butylamino)oxy]-N-[(2Z)-3-butyl[1,3]thiazolo[4,5-c]pyridin-2(3H)-ylidene]-5-(trifluoromethyl)benzamide]
Ki (human CB2 receptors): 62 nM
Ki (rat CB2 receptors): 73 nM

CCCCn1cc(C(C)(C)C)s/c1=N\C(=O)c1cc(C(F)(F)F)ccc1ONC(C)(C)C [Example 23, 2-[(tert-butylamino)oxy]-N-[(2Z)-3-butyl-5-tert-butyl-1,3-thiazol-2(3H)-ylidene]-5-(trifluoromethyl)benzamide]
Ki (human CB2 receptors): 6.7 nM
Ki (rat CB2 receptors): 0.95 nM

Cc1s/c(=N\C(=O)c2cc(C(F)(F)F)ccc2OC[C@@H]2CCCN2C)n(CC2CC2)c1C [Example 24, N-[(2Z)-3-(cyclopropylmethyl)-4,5-dimethyl-1,3-thiazol-2(3H)-ylidene]-2-{[(2S)-1-methylpyrrolidin-2-yl]methoxy}-5-(trifluoromethyl)benzamide]
Ki (human CB2 receptors): 30 nM
Ki (rat CB2 receptors): 35 nM

CC(C)(O)COc1ccc(C(F)(F)F)cc1C(=O)/N=c1\sc2ccncc2n1CC1CCC1 [Example 26, N-[(2Z)-3-(cyclobutylmethyl)[1,3]thiazolo[4,5-c]pyridin-2(3H)-ylidene]-2-(2-hydroxy-2-methylpropoxy)-5-(trifluoromethyl)benzamide]
Ki (human CB2 receptors): 2.5 nM
Ki (rat CB2 receptors): 7.4 nM

CC(C)(O)COc1ccc(C(F)(F)F)cc1C(=O)/N=c1\sc2ccncc2n1CCCC(F)(F)F [Example 27, 2-(2-hydroxy-2-methylpropoxy)-N-[(2Z)-3-(4,4,4-trifluorobutyl)[1,3]thiazolo[4,5-c]pyridin-2(3H)-ylidene]-5-(trifluoromethyl)benzamide]
Ki (human CB2 receptors): 8.4 nM
Ki (rat CB2 receptors): 10 nM

CCCCn1/c(=N/C(=O)c2cc(C(F)(F)F)ccc2OC[C@@H](C)O)sc2ccncc21 [Example 28, N-[(2Z)-3-butyl[1,3]thiazolo[4,5-c]pyridin-2(3H)-ylidene]-2-{[(2R)-2-hydroxypropyl]oxy}-5-(trifluoromethyl)benzamide]
Ki (human CB2 receptors): 75 nM
Ki (rat CB2 receptors): 63 nM

C#CCCn1cc(C(C)(C)C)s/c1=N\C(=O)c1cc(C(F)(F)F)ccc1ONC(C)(C)C [Example 30, 2-[(tert-butylamino)oxy]-N-[(2Z)-5-tert-butyl-3-but-3-ynyl-1,3-thiazol-2(3H)-ylidene]-5-(trifluoromethyl)benzamide]
Ki (human CB2 receptors): 15 nM
Ki (rat CB2 receptors): 0.75 nM

C=C=CCn1cc(C(C)(C)C)s/c1=N\C(=O)c1cc(C(F)(F)F)ccc1ONC(C)(C)C [Example 31, N-[(2Z)-3-buta-2,3-dienyl-5-tert-butyl-1,3-thiazol-2(3H)-ylidene]-2-[(tert-butylamino)oxy]-5-(trifluoromethyl)benzamide]
Ki (human CB2 receptors): 17 nM
Ki (rat CB2 receptors): 1.7 nM

CCCCn1cc(C(C)(C)C)s/c1=N\C(=O)c1cc(C(F)(F)F)ccc1OCC(C)(C)O [Example 32, N-[(2Z)-3-butyl-5-tert-butyl-1,3-thiazol-2(3H)-ylidene]-2-(2-hydroxy-2-methylpropoxy)-5-(trifluoromethyl)benzamide]
Ki (human CB2 receptors): 0.82 nM
Ki (rat CB2 receptors): 1.2 nM

CCCCn1/c(=N/C(=O)c2cc(C(F)(F)F)ccc2OC[C@@H]2CCCN2C)sc2ccncc21 [Example 33, N-[(2Z)-3-butyl[1,3]thiazolo[4,5-c]pyridin-2(3H)-ylidene]-2-{[(2S)-1-methylpyrrolidin-2-yl]methoxy}-5-(trifluoromethyl)benzamide]
Ki (human CB2 receptors): 34 nM
Ki (rat CB2 receptors): 35 nM

CCCCn1c(C(=O)OC)c(C(C)C)s/c1=N\C(=O)c1cc(C(F)(F)F)ccc1ONC(C)(C)C [Example 34]
Ki (human CB2 receptors): 129 nM
Ki (rat CB2 receptors): 48 nM

CCCCn1/c(=N/C(=O)c2cc(C(F)(F)F)ccc2OCC(C)(C)O)sc2ncccc21 [Example 35, N-[(2Z)-1-butyl[1,3]thiazolo[5,4-b]pyridin-2(1H)-ylidene]-2-(2-hydroxy-2-methylpropoxy)-5-(trifluoromethyl)benzamide]
Ki (human CB2 receptors): 15 nM
Ki (rat CB2 receptors): 28 nM

CCCCn1/c(=N/C(=O)c2cc(C(F)(F)F)ccc2OC[C@H](C)O)sc2ncccc21 [Example 36, N-[(2Z)-1-butyl[1,3]thiazolo[5,4-b]pyridin-2(1H)-ylidene]-2-{[(2S)-2-hydroxypropyl]oxy}-5-(trifluoromethyl)benzamide]
Ki (human CB2 receptors): 1.4 nM
Ki (rat CB2 receptors): 2.1 nM

CCCCn1cc(C(C)(C)C)s/c1=N\C(=O)c1cc(C(F)(F)F)ccc1NNC(=O)c1cccnc1 [Example 37, N-[(2Z)-3-butyl-5-tert-butyl-1,3-thiazol-2(3H)-ylidene]-2-[2-(pyridin-3-ylcarbonyl)hydrazino]-5-(trifluoromethyl)benzamide]
Ki (human CB2 receptors): 1.6 nM
Ki (rat CB2 receptors): 0.77 nM

CCCCn1cc(C(C)(C)C)s/c1=N\C(=O)c1cc(C(F)(F)F)ccc1NNC(=O)c1ccncc1 [Example 38, N-[(2Z)-3-butyl-5-tert-butyl-1,3-thiazol-2(3H)-ylidene]-2-(2-isonicotinoylhydrazino)-5-(trifluoromethyl)benzamide]
Ki (human CB2 receptors): 1.1 nM
Ki (rat CB2 receptors): 2.3 nM
